This passage reports IC50 and inhibition results from ChEMBL document CHEMBL1133642, “Difluoro ketone peptidomimetics suggest a large S1 pocket for Alzheimer's gamma-secretase: implications for inhibitor design” (J Med Chem, 2000).

One assay in a line: Concentration required for 50% inhibition of Amyloid beta protein production in Amyloid precursor protein (APP)-transfected Chinese hamster ovary(CHO) cells. In kind it is functional. As to conditions: Cricetulus griseus.
By IC50 is commonly meant the concentration at which inhibition is half-maximal. Lower therefore signals greater potency in that assay. Regarding `CCC(C)[C@H](NC(=O)[C@@H](NC(=O)C(F)(F)C(=O)[C@H](CC1CCCCC1)NC(=O)[C@@H](NC(=O)OC(C)(C)C)C(C)C)C(C)C)C(=O)OCc1ccccc1` (stereo partly specified), the IC50 turned out to be 6 µM.

For `CCC(C)[C@H](NC(=O)[C@@H](NC(=O)C(F)(F)C(=O)[C@H](C)NC(=O)[C@@H](NC(=O)OC(C)(C)C)C(C)C)C(C)C)C(=O)N(C)C` (stereo partly specified), half-maximal inhibition (IC50) was put at 25 µM. In turn, `CCC(C)[C@H](NC(=O)[C@@H](NC(=O)C(F)(F)C(=O)[C@H](CC1CCCCC1)NC(=O)[C@@H](NC(=O)OC(C)(C)C)C(C)C)C(C)C)C(=O)OC` (stereo partly specified) showed an IC50 of 4 µM. `CCC(C)[C@H](NC(=O)[C@@H](NC(=O)C(F)(F)C(=O)[C@H](C)NC(=O)[C@@H](NC(=O)OC(C)(C)C)C(C)C)C(C)C)C(=O)OCc1ccccc1` (stereo partly specified) had an IC50 of 4 µM. The same measure, in the same setting: to `CCC(C)[C@H](NC(=O)[C@@H](NC(=O)C(F)(F)C(=O)[C@H](C)NC(=O)[C@@H](NC(=O)OC(C)(C)C)C(C)C)C(C)C)C(=O)NC` (stereo partly specified) belongs less than 100 µM. For the compound `CCC(C)[C@H](NC(=O)[C@@H](NC(=O)C(F)(F)C(=O)[C@@H](NC(=O)[C@@H](NC(=O)OC(C)(C)C)C(C)C)C(C)C)C(C)C)C(=O)OC` (stereo partly specified), the IC50 came out at 9 µM. This counts as single-digit micromolar. Regarding `CCC(C)[C@H](NC(=O)[C@@H](NC(=O)C(F)(F)C(=O)[C@@H](NC(=O)[C@@H](NC(=O)OC(C)(C)C)C(C)C)c1ccccc1)C(C)C)C(=O)OC` (stereo partly specified), the IC50 worked out at 9 µM. That is a single-digit micromolar value. Take `CCC(C)[C@H](NC(=O)[C@@H](NC(=O)C(F)(F)C(=O)[C@@H](NC(=O)[C@@H](NC(=O)OC(C)(C)C)C(C)C)C(C)CC)C(C)C)C(=O)OC` (stereo partly specified): the IC50 stood at 6 µM.

Compound `CCC(C)[C@H](NC(=O)[C@@H](NC(=O)C(F)(F)C(=O)[C@H](C)NC(=O)[C@@H](NC(=O)OC(C)(C)C)C(C)C)C(C)C)C(=O)OC` (stereo partly specified) registered an IC50 of 15 µM. Against the preceding compound, the IC50 is about 2.5-fold higher. In the case of `CCOC(=O)[C@@H](NC(=O)[C@@H](NC(=O)C(F)(F)C(=O)[C@H](C)NC(=O)[C@@H](NC(=O)OC(C)(C)C)C(C)C)C(C)C)C(C)CC` (stereo partly specified), the IC50 came to 9 µM.

The nature of another assay: Inhibition of Amyloid beta protein production at 25 uM in Amyloid precursor protein (APP)-transfected Chinese hamster ovary(CHO) cells. In kind it is functional. As to conditions: Cricetulus griseus.
The inhibition is the relative decrease from the control value, in per cent. A high value points to strong suppression. `CCC(C)[C@H](NC(=O)[C@@H](NC(=O)C(F)(F)C(=O)[C@H](C)NC(=O)[C@@H](NC(=O)OC(C)(C)C)C(C)C)C(C)C)C(=O)OC` (stereo partly specified) displayed an inhibition at 25 µM of no less than 65%.
